For 17 compounds, TGI and GI50 results are on record in PubChem BioAssay (NCI).

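Following 48 hours of exposure in 96-well plates, responses at five concentrations were used to interpolate endpoints linearly. At the GI50, growth is halved. TGI: total growth inhibition.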

Among the test systems are ACHN renal; EKVX NSCLC; KM12 colon; LOX IMVI melanoma; SK-MEL-5 melanoma; SNB-75 CNS; MDA-MB-231 breast; MDA-MB-435; NCI/ADR-RES ovarian; MDA-N.
What all share (assay): growth of human tumour cells (NCI), 48 h

Consider `O=C(Cl)c1cc([N+](=O)[O-])cc([N+](=O)[O-])c1`, for which the TGI in the assay on ACHN renal, with EKVX NSCLC, in the assay on KM12 colon, in the assay with LOX IMVI melanoma, in the assay with SK-MEL-5 melanoma and in the assay on SNB-75 CNS was > 100 µM each time.
Take `CN(C)CCCn1c2c(c3ccncc3c1=O)C(=O)c1ccccc1-2`: the GI50 is 339 nM in the assay with ACHN renal; 7.91 µM in the assay on EKVX NSCLC; 641 nM in the assay with KM12 colon; 360 nM in the assay with LOX IMVI melanoma; 1770 nM with MDA-MB-231 breast; 1550 nM with MDA-MB-435. For the same compound, the GI50 in the assay on NCI/ADR-RES ovarian is 803 nM; with SK-MEL-5 melanoma, 1070 nM; in the assay with SNB-75 CNS, 1020 nM. Moreover, the TGI was 10.4 µM with ACHN renal; 48.3 µM in the assay on EKVX NSCLC; 11.5 µM with KM12 colon; 4.95 µM in the assay on LOX IMVI melanoma; 7.7 µM in the assay with MDA-MB-231 breast; 4.15 µM in the assay with MDA-MB-435. The TGI worked out at 11.6 µM in the assay with NCI/ADR-RES ovarian, 2.5 µM in the assay on SK-MEL-5 melanoma and 5.88 µM in the assay on SNB-75 CNS.
In the case of `COc1cc(/C=C/C(=O)C(C)(C)C)cc(OC)c1OC`, the TGI is > 100 µM in the assay with ACHN renal; > 100 µM with EKVX NSCLC; 52.7 µM in the assay with KM12 colon; 44 µM with LOX IMVI melanoma; > 100 µM in the assay with SK-MEL-5 melanoma; 68.5 µM in the assay with SNB-75 CNS.
On to `Nc1nc(NC(=O)C2=NS(=O)(=O)c3cc(S(N)(=O)=O)c(Cl)cc3N2)n[nH]1`, for which the TGI with ACHN renal, in the assay on EKVX NSCLC, in the assay on KM12 colon, in the assay on LOX IMVI melanoma, in the assay on SK-MEL-5 melanoma and in the assay on SNB-75 CNS was > 100 µM each time.
Turning to `COC(=O)c1cc(CNCCc2c[nH]c3ccccc23)on1`, the TGI with ACHN renal, with EKVX NSCLC, in the assay with KM12 colon, with LOX IMVI melanoma, in the assay with MDA-N and with NCI/ADR-RES ovarian was > 100 µM in each case. Besides, the TGI in the assay on SK-MEL-5 melanoma and with SNB-75 CNS was > 100 µM in each case.
With `CC(=O)NC(Cc1ccccc1)C(=S)N1CCCC1` (stereo not drawn), the TGI in the assay with ACHN renal, with EKVX NSCLC, in the assay with KM12 colon, with LOX IMVI melanoma, with SK-MEL-5 melanoma and with SNB-75 CNS was > 100 µM in each case.
`CC(C)(Oc1ccc(C2C[C@H]2Cl)cc1)C(=O)O` (stereo partly drawn): the TGI in the assay with EKVX NSCLC, with KM12 colon, with LOX IMVI melanoma, with MDA-MB-231 breast, in the assay with MDA-MB-435 and in the assay with MDA-N was > 100 µM each time. Also, the TGI in the assay on SK-MEL-5 melanoma and in the assay with SNB-75 CNS was > 100 µM throughout.
Consider `Cc1ccc(CCNC(=S)SCC(NC(=O)CCC(N)C(=O)O)C(=O)NCC(=O)O)cc1` (stereo not drawn), for which the TGI with ACHN renal turned out to be 4.17 µM; in the assay on EKVX NSCLC it was 18.6 µM; in the assay on KM12 colon it was 2.68 µM; in the assay with LOX IMVI melanoma, 1.55 µM; in the assay on SK-MEL-5 melanoma, 3.78 µM; in the assay with SNB-75 CNS it was 3.44 µM.
With `CC1(C)CC(=O)C2=C(C1)OC1=C(CC(C)(C)CC1=O)C2c1ccccc1Cl` (stereo not drawn), the TGI with ACHN renal, in the assay on EKVX NSCLC, in the assay on LOX IMVI melanoma, in the assay with MDA-MB-231 breast, in the assay with MDA-MB-435 and in the assay with NCI/ADR-RES ovarian was > 100 µM throughout. Further, the TGI in the assay with SK-MEL-5 melanoma and in the assay with SNB-75 CNS was > 100 µM throughout.
Regarding `C[N+](C)(C)CC(=O)N/N=C(\C(=O)Nc1ccc(Cl)cc1)C1C(=O)N(c2ccccc2)N=C1N` (stereo not drawn), the TGI in the assay with ACHN renal, with EKVX NSCLC, in the assay with KM12 colon, in the assay with LOX IMVI melanoma, with SK-MEL-5 melanoma and in the assay on SNB-75 CNS was > 100 µM throughout.
For `OB1OCc2ccccc21`, the TGI was > 100 µM in the assay on KM12 colon; > 100 µM with LOX IMVI melanoma; > 100 µM in the assay with MDA-MB-231 breast; > 100 µM in the assay with MDA-MB-435; 57.9 µM in the assay on NCI/ADR-RES ovarian; > 100 µM with SK-MEL-5 melanoma.
Take `N#C/C(=C/NC(=S)Nc1ccc(S(N)(=O)=O)cc1)C(N)=O`: the TGI in the assay on ACHN renal, with EKVX NSCLC, in the assay on KM12 colon, in the assay on MDA-MB-435, in the assay with MDA-N and with SK-MEL-5 melanoma was > 100 µM each time. Also, the TGI in the assay with SNB-75 CNS is > 100 µM.
Turning to `COc1cccc2c(NNc3ccc(Cl)cc3)c3ccc([N+](=O)[O-])cc3nc12`, the TGI was 22.4 µM in the assay on ACHN renal; 33.3 µM in the assay with EKVX NSCLC; > 100 µM in the assay on KM12 colon; 36.1 µM in the assay with LOX IMVI melanoma; 27.5 µM in the assay on MDA-MB-231 breast; > 100 µM in the assay on MDA-MB-435. Besides, the figures for the TGI in the assay with MDA-N and in the assay with SK-MEL-5 melanoma were > 100 µM and 80.4 µM, respectively.
`CC(C)(C)OC(=O)NCCNC(=O)OCc1ccccc1`: the TGI in the assay on ACHN renal, in the assay on EKVX NSCLC, in the assay with KM12 colon, in the assay with MDA-MB-435, in the assay on MDA-N and in the assay on NCI/ADR-RES ovarian was > 100 µM throughout. Besides, the TGI with SK-MEL-5 melanoma and with SNB-75 CNS was > 100 µM throughout.
Take `COc1ccc2[nH]c3c(C)c4ccnc(NCCCN(C)CCCNC(=O)NCCCN(C)CCCNc5nccc6c(C)c7[nH]c8ccc(OC)cc8c7c(C)c56)c4c(C)c3c2c1`: the TGI in the assay with ACHN renal was 2.8 µM; in the assay on EKVX NSCLC it was 2.56 µM; in the assay with KM12 colon, > 10.1 µM; in the assay with MDA-MB-231 breast, > 50 µM; with MDA-MB-435, 1.24 µM; in the assay with NCI/ADR-RES ovarian, > 50 µM. The compound also gave a TGI in the assay with SNB-75 CNS of 1.56 µM.
Take `CCN(CC)CC(C(=O)Nc1c(C)cccc1C)/C(C)=N/NC(N)=S` (stereo not drawn): the TGI in the assay with ACHN renal, with EKVX NSCLC, in the assay with KM12 colon, with LOX IMVI melanoma, with SK-MEL-5 melanoma and in the assay with SNB-75 CNS was > 100 µM throughout.
As for `CC(C)(C)OC(=O)N(CCCN)CCCCN(CCCN)C(=O)OC(C)(C)C`, the TGI with ACHN renal, with EKVX NSCLC, with KM12 colon, in the assay on LOX IMVI melanoma, with MDA-MB-435 and in the assay with NCI/ADR-RES ovarian was > 100 µM throughout. In addition, the TGI with SK-MEL-5 melanoma and in the assay on SNB-75 CNS was > 100 µM in each case.
